Measured values as given in patent publication US11752188B2, “Compositions and methods for nutritional supplements” (DailyColors Health Inc., priority 2020, dated 2023).
Like-named read-outs stand apart in the source and are kept apart here.

Target: T1, recombinant human CD73 (Homo sapiens, UniProt P21589)
T1 construct: purchased BPS Bioscience 71184 (enzyme); kit #72055
T1 sequence (P21589 27-549): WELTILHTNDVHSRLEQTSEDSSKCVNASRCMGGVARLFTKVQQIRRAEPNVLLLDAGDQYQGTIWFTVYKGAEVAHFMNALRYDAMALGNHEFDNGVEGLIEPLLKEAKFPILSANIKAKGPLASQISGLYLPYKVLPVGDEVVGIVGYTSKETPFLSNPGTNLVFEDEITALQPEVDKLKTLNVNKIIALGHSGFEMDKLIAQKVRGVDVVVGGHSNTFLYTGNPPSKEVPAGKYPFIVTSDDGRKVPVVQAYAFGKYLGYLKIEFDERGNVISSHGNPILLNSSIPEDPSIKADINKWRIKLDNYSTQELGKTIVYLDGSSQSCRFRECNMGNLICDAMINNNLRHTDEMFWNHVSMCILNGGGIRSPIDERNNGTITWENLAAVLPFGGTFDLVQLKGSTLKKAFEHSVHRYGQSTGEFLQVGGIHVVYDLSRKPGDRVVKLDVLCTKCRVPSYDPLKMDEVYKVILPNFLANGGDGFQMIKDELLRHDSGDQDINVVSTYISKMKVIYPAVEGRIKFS
Experiment: CD73 in vitro enzymatic assay (colorimetric 630 nm)
Type: biochemical
Source text: Here, D5 is the Yellow Blend, D9 is the Purple Blend, D21 is the Green Blend, D13 is the Red Blend, and D31 is CBD. As before, the red blend included Apple Extract, Pomegranate Extract, Tomato Powder, Beet; the green blend included Olive Extract, Rosemary Extract, Green Coffee Bean Extract, Kale; the orange/yellow blend included Onion Extract, Ginger Extract, Grapefruit Extract, Carrot; and the purple/blue blend included Grape, Blueberry Extract, Currant, Elderberry.
Assay Conditions: In general, all assays points were done by following the CD39 and CD73 Inhibitor Screening Assay Kit protocol (BPS Bioscience, #79278 and 72055, respectively). The CD73 enzymatic reactions were conducted in duplicate at room temperature for 30 minutes in a 50 μl mixture containing assay buffer, […], CD73 enzymes, and the test compound. Test compounds were preincubated with the enzyme for 30 minutes. Reactions were started by addition of the substrate. The 50 μl reactions were carried out in a 96-well transparent plate. After enzymatic reactions, 100 μl of Colorimetric Detection Reagent was added to the reaction mix. After a 15 minutes incubation, absorbance was measured using a Tecan plate reader at 630 nm.
Data Analysis: Enzyme activity assays were performed in duplicates at each concentration. The Absorbance intensity data were analyzed and compared. In the absence of the compound, the intensity in each data set was defined as 100% (Ce) activity. In the absence of enzyme, the intensity in each data set was defined as 0% (C0) activity.

Nc1ncnc2c1ncn2[C@@H]1O[C@H](COP(=O)(O)CP(=O)(O)O)[C@@H](O)[C@H]1O [AMPCP]
Activity (%) Repeat 1 (0.1 μM, TABLE 93): 81%
Activity (%) Repeat 2 (0.1 μM, TABLE 93): 96%
Inhibition (%) (0.1 μM, TABLE 93): 12%
Net Signal (Absorbance) Repeat 1 (0.1 μM, TABLE 93): 0.14
Net Signal (Absorbance) Repeat 2 (0.1 μM, TABLE 93): 0.17
Activity (%) Rep. 1 (1 μM, TABLE 90): 92%
Activity (%) Rep. 2 (1 μM, TABLE 90): 96%
Inhibition (%) (1 μM, TABLE 90): 6%
Net absorbance Rep. 1 (1 μM, TABLE 90): 0.368
Net absorbance Rep. 2 (1 μM, TABLE 90): 0.383
Activity (%) Rep. 1 (1 μM, TABLE 91): 89%
Activity (%) Rep. 2 (1 μM, TABLE 91): 89%
Inhibition (%) (1 μM, TABLE 91): 11%
Net absorbance Rep. 1 (1 μM, TABLE 91): 0.30
Net absorbance Rep. 2 (1 μM, TABLE 91): 0.30
Activity (%) Repeat 1 (1 μM, TABLE 93): 53%
Activity (%) Repeat 2 (1 μM, TABLE 93): 64%
Inhibition (%) (1 μM, TABLE 93): 41%
Net Signal (Absorbance) Repeat 1 (1 μM, TABLE 93): 0.09
Net Signal (Absorbance) Repeat 2 (1 μM, TABLE 93): 0.11
Activity (%) Rep. 1 (10 μM, TABLE 90): 74%
Activity (%) Rep. 2 (10 μM, TABLE 90): 76%
Inhibition (%) (10 μM, TABLE 90): 25%
Net absorbance Rep. 1 (10 μM, TABLE 90): 0.298
Net absorbance Rep. 2 (10 μM, TABLE 90): 0.306
Activity (%) Rep. 1 (10 μM, TABLE 91): 52%
Activity (%) Rep. 2 (10 μM, TABLE 91): 59%
Inhibition (%) (10 μM, TABLE 91): 45%
Net absorbance Rep. 1 (10 μM, TABLE 91): 0.18
Net absorbance Rep. 2 (10 μM, TABLE 91): 0.20
Activity (%) Repeat 1 (10 μM, TABLE 93): 20%
Activity (%) Repeat 2 (10 μM, TABLE 93): 28%
Inhibition (%) (10 μM, TABLE 93): 76%
Net Signal (Absorbance) Repeat 1 (10 μM, TABLE 93): 0.04
Net Signal (Absorbance) Repeat 2 (10 μM, TABLE 93): 0.05
Activity (%) Rep. 1 (100 μM, TABLE 90): 17%
Activity (%) Rep. 2 (100 μM, TABLE 90): 22%
Inhibition (%) (100 μM, TABLE 90): 80%
Net absorbance Rep. 1 (100 μM, TABLE 90): 0.071
Net absorbance Rep. 2 (100 μM, TABLE 90): 0.089
Activity (%) Rep. 1 (100 μM, TABLE 91): 13%
Activity (%) Rep. 2 (100 μM, TABLE 91): 12%
Inhibition (%) (100 μM, TABLE 91): 88%
Net absorbance Rep. 1 (100 μM, TABLE 91): 0.04
Net absorbance Rep. 2 (100 μM, TABLE 91): 0.04

O=c1c(O)c(-c2ccc(O)c(O)c2)oc2cc(O)cc(O)c12 [Quercetin]
Net absorbance Rep. 1 (1 μM, TABLE 89): 0.40
Net absorbance Rep. 2 (1 μM, TABLE 89): 0.36
inhibition at 1 µM (1 μM, TABLE 89): 13%
activity at 1 µM (1 μM, TABLE 89, read-out: Activity (%) Rep. 1): 92%
activity at 1 µM (1 μM, TABLE 89, read-out: Activity (%) Rep. 2): 82%
Net absorbance Rep. 1 (10 μM, TABLE 89): 0.23
Net absorbance Rep. 2 (10 μM, TABLE 89): 0.25
inhibition at 10 µM (10 μM, TABLE 89): 44%
activity at 10 µM (10 μM, TABLE 89, read-out: Activity (%) Rep. 1): 53%
activity at 10 µM (10 μM, TABLE 89, read-out: Activity (%) Rep. 2): 58%
Net absorbance Rep. 1 (100 μM, TABLE 89): 0.12
Net absorbance Rep. 2 (100 μM, TABLE 89): 0.08
inhibition at 100 µM (100 μM, TABLE 89): 78%
activity at 100 µM (100 μM, TABLE 89, read-out: Activity (%) Rep. 1): 27%
activity at 100 µM (100 μM, TABLE 89, read-out: Activity (%) Rep. 2): 17%
